From ChEMBL document CHEMBL5608237, “Merging Natural Product Structures with Pharmaceutical Leads: Unnatural Enantiomers of Estranes as Glucocorticoid Receptor Modulators That Suppress TNF-α and IL-6 Release” (J Med Chem, 2024)

Key:
[1] = Inhibition of IL-6 production in recombinant human IL-1 beta induced A549 cells assessed as maximum inhibition preincubated with compound for 1 hr followed by IL-1 beta addition and measured after 20 hrs by MSD assay relative to control; type: functional; conditions: time 21 hrs
[2] = Inhibition of TNF alpha production in recombinant human IL-1 beta induced A549 cells assessed as maximum inhibition preincubated with compound for 1 hr followed by IL-1 beta addition and measured after 20 hrs by MSD assay relative to control; type: functional; conditions: time 21 hrs
[3] = target: T1, Androgen receptor (Homo sapiens, UniProt P10275); experiment: Antagonist activity at human androgen receptor transfected in African green monkey CV-1 cells cotransfected with genetic response element-luciferase reporter gene assessed as inhibition of 5alpha-dihydro-11-keto testosterone induced response incubated for 22 hrs by luciferase detection reagent based assay; type: cell-based
T1 sequence (P10275 whole entry): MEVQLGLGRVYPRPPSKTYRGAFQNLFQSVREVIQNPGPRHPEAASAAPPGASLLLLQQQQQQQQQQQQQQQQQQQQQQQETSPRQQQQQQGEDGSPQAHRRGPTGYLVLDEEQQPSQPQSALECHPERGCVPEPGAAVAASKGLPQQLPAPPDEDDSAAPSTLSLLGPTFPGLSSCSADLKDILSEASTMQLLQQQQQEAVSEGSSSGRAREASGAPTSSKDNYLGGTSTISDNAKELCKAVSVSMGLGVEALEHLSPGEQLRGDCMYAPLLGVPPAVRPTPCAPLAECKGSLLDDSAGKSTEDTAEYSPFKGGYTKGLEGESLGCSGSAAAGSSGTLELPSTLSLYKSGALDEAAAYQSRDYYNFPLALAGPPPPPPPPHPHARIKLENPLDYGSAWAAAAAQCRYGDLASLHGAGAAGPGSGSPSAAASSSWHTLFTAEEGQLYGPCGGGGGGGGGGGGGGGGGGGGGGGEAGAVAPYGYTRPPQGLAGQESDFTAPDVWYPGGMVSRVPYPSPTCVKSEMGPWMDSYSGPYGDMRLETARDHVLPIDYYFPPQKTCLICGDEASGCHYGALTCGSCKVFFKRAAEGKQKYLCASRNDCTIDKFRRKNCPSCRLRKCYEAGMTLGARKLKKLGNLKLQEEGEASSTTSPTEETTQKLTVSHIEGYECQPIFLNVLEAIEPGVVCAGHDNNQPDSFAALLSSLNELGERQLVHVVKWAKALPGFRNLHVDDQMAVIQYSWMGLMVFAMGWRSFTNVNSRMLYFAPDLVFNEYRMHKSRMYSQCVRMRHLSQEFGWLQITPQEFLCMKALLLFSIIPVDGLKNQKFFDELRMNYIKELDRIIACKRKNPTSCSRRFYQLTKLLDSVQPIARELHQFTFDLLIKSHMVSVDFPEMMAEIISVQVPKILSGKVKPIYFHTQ

Compound	inhibition (INH) [1] [%]	IC50 [3] [nM]	also measured
Cc1ncccc1NC(=O)c1ccc2c(c1)C(=O)C[C@@H]1C[C@@](O)(c3ccccc3)[C@H](O)C[C@@]21Cc1ccccc1	60	–	inhibition (INH) [2]: 60%
CC#C[C@]1(O)CC[C@H]2[C@@H]3CCC4=CC(=O)CCC4=C3[C@@H](c3ccc(N(C)C)cc3)C[C@@]21C [MIFEPRISTONE]	<20	–	–
Cc1ncncc1Nc1ccc2c(c1)CCC1=C3C[C@H](O)C[C@]3(C)CC[C@]12Cc1ccccc1	–	> 10000	–
C[C@@H]1C[C@H]2[C@@H]3CCC4=CC(=O)C=C[C@]4(C)[C@@]3(F)[C@@H](O)C[C@]2(C)[C@@]1(O)C(=O)CO [DEXAMETHASONE]	–	–	Imax [1]: 98%; Imax [2]: 100%
Cc1ncccc1Nc1ccc2c(c1)CCC1=C3C[C@@H](O)C[C@]3(C)CC[C@]12Cc1ccccc1	–	174	–
Cc1ncccc1NC(=O)c1ccc2c(c1)CC[C@@H]1C[C@@](O)(C(F)(F)F)CC[C@@]21Cc1ccccc1 [DAGROCORAT]	60	–	inhibition (INH) [2]: 60%
Cc1ncncc1Nc1ccc2c(c1)CCC1=C3C[C@@H](O)C[C@]3(C)CC[C@]12Cc1ccccc1	–	> 10000	–
Cc1ncccc1Nc1ccc2c(c1)CCC1=C3C[C@@H](O)C[C@]3(C)CC[C@]12C	–	401	–
